In ChEMBL document CHEMBL5696439 (Cancer Res, 2010):
Active and inactive are the calls of the source. No cut-off for these calls is given here.

Legend:
[1] = target: Mitogen-activated protein kinase 13 (Homo sapiens) (UniProt O15264); test: Inhibition of recombinant human full length His-tagged MAPK13 expressed in baculovirus expression system at 2 uM using Ser/Thr 03 as substrate measured after 1 hr by Z'-LYTE assay relative to control
[2] = target: Serine/threonine-protein kinase D1 (Homo sapiens) (UniProt Q15139); test: Inhibition of recombinant human full length GST-tagged PRKD1 expressed in insect cells at 2 uM using Ser/Thr 17 as substrate measured after 1 hr by Z'-LYTE assay relative to control; settings: Insect cell
HCT-116 [3] = test: Antiproliferative activity against human HCT-116 cells assessed as cell growth inhibition incubated for 24 hrs by MTS assay; type: functional, cell-based; settings: HCT-116, 24 h
[4] = target: Tyrosine-protein kinase Fyn (Homo sapiens) (UniProt P06241); test: Inhibition of recombinant human full-length His-tagged FYN expressed in insect cells at 2 uM using Tyr 02 as substrate measured after 1 hr by Z'-LYTE assay relative to control; settings: Insect cell
Chain of Tyrosine-protein kinase Fyn (Homo sapiens) (P06241 2-537 limits assumed): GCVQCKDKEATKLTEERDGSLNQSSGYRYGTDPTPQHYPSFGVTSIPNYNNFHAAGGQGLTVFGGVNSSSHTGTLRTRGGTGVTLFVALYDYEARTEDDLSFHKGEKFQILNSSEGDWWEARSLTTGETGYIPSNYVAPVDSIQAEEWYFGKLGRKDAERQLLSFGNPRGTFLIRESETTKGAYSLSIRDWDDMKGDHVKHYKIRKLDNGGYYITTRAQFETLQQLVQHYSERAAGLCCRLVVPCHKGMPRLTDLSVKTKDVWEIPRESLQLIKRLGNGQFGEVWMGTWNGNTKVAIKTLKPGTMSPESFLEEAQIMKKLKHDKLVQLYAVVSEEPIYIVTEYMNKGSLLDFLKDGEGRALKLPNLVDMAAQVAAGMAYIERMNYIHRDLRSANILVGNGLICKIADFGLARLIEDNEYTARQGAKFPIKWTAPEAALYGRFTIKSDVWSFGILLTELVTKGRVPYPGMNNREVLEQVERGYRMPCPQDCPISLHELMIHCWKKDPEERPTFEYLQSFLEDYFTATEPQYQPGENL

MDA-MB-361 [5] = test: Antitumor activity against human MDA-MB-361 cells xenografted in female nude mouse model assessed as P-AKT at T308 level at 6 to 12 mg/kg, po qd administered as 5 days on/2 days off regimen for 4 cycles by immunoblot analysis; type: functional, organism-based; settings: dose 6-12 mg/kg, time 28.0 day
[6] = target: Homeodomain-interacting protein kinase 1 (Homo sapiens) (UniProt Q86Z02); test: Inhibition of recombinant human GST-tagged HIPK1 (158-555 residues) expressed in insect cells at 2 uM using Ser/Thr 09 as substrate measured after 1 hr by Z'-LYTE assay relative to control; settings: Insect cell
Chain of Homeodomain-interacting protein kinase 1 (Homo sapiens) (Q86Z02 whole entry, looked up, the tested form may be a part): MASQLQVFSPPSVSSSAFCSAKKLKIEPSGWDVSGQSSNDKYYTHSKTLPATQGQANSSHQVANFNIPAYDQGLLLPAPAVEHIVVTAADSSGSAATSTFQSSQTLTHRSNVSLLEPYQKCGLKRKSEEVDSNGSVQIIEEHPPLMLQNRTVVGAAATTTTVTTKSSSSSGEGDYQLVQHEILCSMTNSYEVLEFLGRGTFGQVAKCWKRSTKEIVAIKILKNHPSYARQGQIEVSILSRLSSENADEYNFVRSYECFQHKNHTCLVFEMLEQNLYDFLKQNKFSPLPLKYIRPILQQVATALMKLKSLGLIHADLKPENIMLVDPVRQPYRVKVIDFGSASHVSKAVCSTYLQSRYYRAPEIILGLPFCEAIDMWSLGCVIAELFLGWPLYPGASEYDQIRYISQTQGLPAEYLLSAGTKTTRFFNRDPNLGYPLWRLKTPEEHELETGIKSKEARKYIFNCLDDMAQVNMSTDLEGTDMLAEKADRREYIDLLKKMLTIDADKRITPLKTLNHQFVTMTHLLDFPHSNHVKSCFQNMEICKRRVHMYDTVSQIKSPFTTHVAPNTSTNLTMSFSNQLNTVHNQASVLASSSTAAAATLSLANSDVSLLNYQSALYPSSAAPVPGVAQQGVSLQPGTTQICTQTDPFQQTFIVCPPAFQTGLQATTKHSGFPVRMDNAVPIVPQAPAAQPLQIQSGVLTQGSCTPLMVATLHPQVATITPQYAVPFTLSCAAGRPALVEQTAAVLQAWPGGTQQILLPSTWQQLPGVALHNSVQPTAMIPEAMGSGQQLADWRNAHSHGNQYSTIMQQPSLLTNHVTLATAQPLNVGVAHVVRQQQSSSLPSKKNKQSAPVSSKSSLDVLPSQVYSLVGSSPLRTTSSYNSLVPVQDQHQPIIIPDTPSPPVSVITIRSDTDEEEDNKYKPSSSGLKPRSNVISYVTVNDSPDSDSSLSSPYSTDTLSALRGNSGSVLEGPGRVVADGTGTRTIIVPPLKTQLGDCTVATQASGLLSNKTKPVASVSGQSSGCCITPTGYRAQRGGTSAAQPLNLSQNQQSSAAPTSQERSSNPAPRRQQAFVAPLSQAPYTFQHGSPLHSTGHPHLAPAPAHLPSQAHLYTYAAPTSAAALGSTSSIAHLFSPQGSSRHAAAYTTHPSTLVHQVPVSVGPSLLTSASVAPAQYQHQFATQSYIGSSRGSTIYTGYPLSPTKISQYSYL

MG-63 = test: Antiproliferative activity against human MG-63 cells assessed as cell growth inhibition incubated for 24 hrs by MTS assay; type: functional, cell-based; settings: MG-63, 24 h
[7] = target: Dual specificity protein kinase CLK1 (Homo sapiens) (UniProt P49759); test: Inhibition of recombinant human GST-tagged CLK1 (129-484 residues) expressed in E. coli at 2 uM using Ser/Thr 09 as substrate measured after 1 hr by Z'-LYTE assay relative to control
HCT-116 [8] = test: Induction of apoptosis in human HCT-116 cells assessed as increase in G1 phase at 1 micromol/L incubated for 24 hrs by FACS analysis; type: functional, cell-based; settings: dose 1.0 µmol/L
mTORC2 (Homo sapiens) = mTORC2 (Homo sapiens) (UniProt P42345+Q6R327+Q9BVC4+Q9BPZ7); settings: U-87 MG, dose 0.025-2 µmol/L, time 6.0 hrs
U-87 MG = test: Induction of apoptosis in human U-87MG cells assessed as increase in G1 phase at 1 micromol/L incubated for 24 hrs by FACS analysis; type: functional, cell-based; settings: U-87MG ATCC, dose 1.0 µmol/L
NCI-H1975 = test: Antitumor activity against human NCI-H1975 cells xenografted in female nude mouse model assessed as survival at 10 mg/kg, po qd administered as 5 days on/2 days off regimen for 4 cycles; type: functional, organism-based; settings: time 28.0 day
[9] = target: Serine/threonine-protein kinase TBK1 (Homo sapiens) (UniProt Q9UHD2); test: Inhibition of recombinant human full length GST-tagged TBK1 expressed in insect cells at 2 uM using Ser/Thr 05 as substrate measured after 1 hr by Z'-LYTE assay relative to control; settings: Insect cell
Chain of Serine/threonine-protein kinase TBK1 (Homo sapiens) (Q9UHD2 whole entry): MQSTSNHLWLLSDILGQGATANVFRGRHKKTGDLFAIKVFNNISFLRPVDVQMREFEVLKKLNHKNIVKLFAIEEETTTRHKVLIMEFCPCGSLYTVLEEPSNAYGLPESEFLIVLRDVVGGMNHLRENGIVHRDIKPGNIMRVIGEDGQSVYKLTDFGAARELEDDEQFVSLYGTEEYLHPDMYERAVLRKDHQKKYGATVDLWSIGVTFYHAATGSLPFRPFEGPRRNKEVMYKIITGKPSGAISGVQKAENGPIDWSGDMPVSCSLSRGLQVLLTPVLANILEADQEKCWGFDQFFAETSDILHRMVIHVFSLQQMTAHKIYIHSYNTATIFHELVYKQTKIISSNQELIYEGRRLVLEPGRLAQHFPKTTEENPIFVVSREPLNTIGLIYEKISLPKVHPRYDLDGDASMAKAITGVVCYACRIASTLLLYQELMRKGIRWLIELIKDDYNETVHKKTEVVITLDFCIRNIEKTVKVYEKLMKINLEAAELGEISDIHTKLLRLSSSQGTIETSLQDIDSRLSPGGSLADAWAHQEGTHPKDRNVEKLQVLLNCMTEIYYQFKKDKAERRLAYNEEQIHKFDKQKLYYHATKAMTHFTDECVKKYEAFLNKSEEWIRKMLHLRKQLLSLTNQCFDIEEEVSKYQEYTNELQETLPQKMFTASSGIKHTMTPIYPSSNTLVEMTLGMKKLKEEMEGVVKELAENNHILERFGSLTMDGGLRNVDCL

[10] = target: Mitogen-activated protein kinase 12 (Homo sapiens) (UniProt P53778); test: Inhibition of recombinant human full length His-tagged MAPK12 expressed in baculovirus expression system at 2 uM using Ser/Thr 03 as substrate measured after 1 hr by Z'-LYTE assay relative to control
[11] = target: Serine/threonine-protein kinase Nek6 (Homo sapiens) (UniProt Q9HC98); test: Inhibition of recombinant human full length GST-tagged NEK6 expressed in insect cells at 2 uM using Ser/Thr 22 as substrate measured after 1 hr by Z'-LYTE assay relative to control; settings: Insect cell
Chain of Serine/threonine-protein kinase Nek6 (Homo sapiens) (Q9HC98 whole entry): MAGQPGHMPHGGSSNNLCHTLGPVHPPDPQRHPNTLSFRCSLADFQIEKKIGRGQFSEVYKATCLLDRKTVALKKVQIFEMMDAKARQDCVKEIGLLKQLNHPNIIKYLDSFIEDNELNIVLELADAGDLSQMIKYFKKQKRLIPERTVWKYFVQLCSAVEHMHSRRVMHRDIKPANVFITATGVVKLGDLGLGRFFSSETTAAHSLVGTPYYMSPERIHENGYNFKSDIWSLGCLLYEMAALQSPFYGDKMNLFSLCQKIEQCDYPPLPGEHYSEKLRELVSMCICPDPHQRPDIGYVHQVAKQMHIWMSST

[12] = target: Ribosomal protein S6 kinase alpha-1 (Homo sapiens) (UniProt Q15418); test: Inhibition of recombinant human full length His-tagged RPS6KA1 expressed in insect cells at 2 uM using Ser/Thr 06 as substrate measured after 1 hr by Z'-LYTE assay relative to control; settings: Insect cell
[13] = target: Serine/threonine-protein kinase PAK 6 (Homo sapiens) (UniProt Q9NQU5); test: Inhibition of recombinant human full length His-tagged PAK6 expressed in insect cells at 2 uM using Ser/Thr 20 as substrate measured after 1 hr by Z'-LYTE assay relative to control; settings: Insect cell
[14] = target: Mast/stem cell growth factor receptor Kit (Homo sapiens) (UniProt P10721); test: Inhibition of recombinant human His-tagged KIT (544-976 residues) expressed in insect cells at 2 uM using […] as substrate measured after 1 hr by Z'-LYTE assay relative to control
Chain of Mast/stem cell growth factor receptor Kit (Homo sapiens) (P10721 whole entry, the tested form may be a part): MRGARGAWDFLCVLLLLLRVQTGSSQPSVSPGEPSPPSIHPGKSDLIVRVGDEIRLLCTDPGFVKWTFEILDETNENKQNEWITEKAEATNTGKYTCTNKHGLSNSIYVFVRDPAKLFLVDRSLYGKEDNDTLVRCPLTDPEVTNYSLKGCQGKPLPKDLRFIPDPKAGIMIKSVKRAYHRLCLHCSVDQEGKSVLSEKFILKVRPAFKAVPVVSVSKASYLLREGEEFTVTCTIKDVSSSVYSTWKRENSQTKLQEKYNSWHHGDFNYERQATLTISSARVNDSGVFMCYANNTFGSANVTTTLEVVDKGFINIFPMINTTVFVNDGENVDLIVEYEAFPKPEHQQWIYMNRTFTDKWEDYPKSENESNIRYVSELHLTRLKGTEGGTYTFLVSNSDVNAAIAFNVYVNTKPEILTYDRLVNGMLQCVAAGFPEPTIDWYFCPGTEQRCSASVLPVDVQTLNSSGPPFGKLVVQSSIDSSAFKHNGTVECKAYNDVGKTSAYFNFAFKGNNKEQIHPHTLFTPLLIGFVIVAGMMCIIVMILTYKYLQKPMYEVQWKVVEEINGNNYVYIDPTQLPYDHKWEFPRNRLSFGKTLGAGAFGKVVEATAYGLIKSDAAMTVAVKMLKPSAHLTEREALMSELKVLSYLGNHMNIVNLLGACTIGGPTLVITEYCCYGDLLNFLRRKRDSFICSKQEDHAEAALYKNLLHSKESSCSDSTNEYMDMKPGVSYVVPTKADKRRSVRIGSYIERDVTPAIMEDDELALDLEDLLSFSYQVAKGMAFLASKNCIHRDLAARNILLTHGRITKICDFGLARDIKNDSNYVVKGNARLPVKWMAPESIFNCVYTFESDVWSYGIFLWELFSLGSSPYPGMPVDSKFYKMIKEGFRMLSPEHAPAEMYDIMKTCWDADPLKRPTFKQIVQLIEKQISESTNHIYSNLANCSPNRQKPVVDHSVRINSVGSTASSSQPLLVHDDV

[15] = tested on: Tyrosine-protein kinase ABL1 (Homo sapiens), P00519 [G250E]; test: Inhibition of recombinant human full-length His-tagged ABL1 G250E mutant expressed in insect cells at 2 uM using Tyr 02 as substrate measured after 1 hr by Z'-LYTE assay relative to control; settings: Insect cell
[16] = target: Casein kinase I isoform alpha (Homo sapiens) (UniProt P48729); test: Inhibition of recombinant human full-length GST-tagged CSNK1A1 at 2 uM using Ser/Thr 11 as substrate measured after 1 hr by Z'-LYTE assay relative to control
A498 = test: cells; settings: Homo sapiens, A498, 24 h
Description: Antiproliferative activity against human A498 cells assessed as cell growth inhibition incubated for 1 days by MTS assay

[17] = target: Aurora kinase A (Homo sapiens) (UniProt O14965); test: Inhibition of recombinant human full-length His-tagged AURKA expressed in insect cells at 2 uM using Ser/Thr 01 as substrate measured after 1 hr by Z'-LYTE assay relative to control; settings: Insect cell
Chain of Aurora kinase A (Homo sapiens) (O14965 whole entry): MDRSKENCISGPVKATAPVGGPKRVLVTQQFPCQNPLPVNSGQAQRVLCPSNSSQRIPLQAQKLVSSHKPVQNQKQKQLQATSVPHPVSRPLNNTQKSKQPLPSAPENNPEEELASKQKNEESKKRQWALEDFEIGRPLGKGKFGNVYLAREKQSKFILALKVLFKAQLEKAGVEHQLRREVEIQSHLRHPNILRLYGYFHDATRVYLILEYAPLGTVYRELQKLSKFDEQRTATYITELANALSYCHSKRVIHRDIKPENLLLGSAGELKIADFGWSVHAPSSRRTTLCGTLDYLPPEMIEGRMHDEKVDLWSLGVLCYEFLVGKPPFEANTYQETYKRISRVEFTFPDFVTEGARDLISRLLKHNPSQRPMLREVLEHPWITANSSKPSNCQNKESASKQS

MDA-MB-361 [18] = test: Induction of apoptosis in HER2 hyperactive human MDA-MB-361 cells assessed as massive cell death at 0.001 to 100 micromol/L incubated for 48 hrs by FACS analysis; type: functional, cell-based; settings: dose 0.001-100 µmol/L
[19] = target: Serine/threonine-protein kinase 25 (Homo sapiens) (UniProt O00506); test: Inhibition of recombinant human full length GST-tagged STK25 expressed in insect cells at 2 uM using Ser/Thr 07 as substrate measured after 1 hr by Z'-LYTE assay relative to control; settings: Insect cell
[20] = target: Dual specificity protein kinase CLK3 (Homo sapiens) (UniProt P49761); test: Inhibition of recombinant human full-length GST-tagged CLK3 expressed in insect cells at 2 uM using Ser/Thr 18 as substrate measured after 1 hr by Z'-LYTE assay relative to control; settings: Insect cell
Chain of Dual specificity protein kinase CLK3 (Homo sapiens) (P49761 whole entry, looked up): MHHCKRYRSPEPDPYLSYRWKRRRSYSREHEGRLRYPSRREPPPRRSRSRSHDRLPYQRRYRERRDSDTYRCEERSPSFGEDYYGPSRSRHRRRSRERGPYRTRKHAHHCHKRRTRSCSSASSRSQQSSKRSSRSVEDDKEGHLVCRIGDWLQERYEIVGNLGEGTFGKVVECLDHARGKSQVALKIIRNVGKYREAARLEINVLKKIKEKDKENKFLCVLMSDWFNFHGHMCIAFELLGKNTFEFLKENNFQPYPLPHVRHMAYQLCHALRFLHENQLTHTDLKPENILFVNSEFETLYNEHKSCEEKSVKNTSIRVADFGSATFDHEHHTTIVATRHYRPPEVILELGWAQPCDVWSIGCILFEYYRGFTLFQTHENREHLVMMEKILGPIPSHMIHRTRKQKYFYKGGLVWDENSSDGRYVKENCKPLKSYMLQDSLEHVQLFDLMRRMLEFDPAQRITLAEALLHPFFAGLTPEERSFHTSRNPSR

[21] = target: Protein kinase C beta type (Homo sapiens) (UniProt P05771); test: Inhibition of recombinant human full length GST-tagged PRKCB1 expressed in baculovirus expression system at 2 uM using Ser/Thr 07 as substrate measured after 1 hr by Z'-LYTE assay relative to control

Chain of Mitogen-activated protein kinase 13 (Homo sapiens) (O15264 whole entry): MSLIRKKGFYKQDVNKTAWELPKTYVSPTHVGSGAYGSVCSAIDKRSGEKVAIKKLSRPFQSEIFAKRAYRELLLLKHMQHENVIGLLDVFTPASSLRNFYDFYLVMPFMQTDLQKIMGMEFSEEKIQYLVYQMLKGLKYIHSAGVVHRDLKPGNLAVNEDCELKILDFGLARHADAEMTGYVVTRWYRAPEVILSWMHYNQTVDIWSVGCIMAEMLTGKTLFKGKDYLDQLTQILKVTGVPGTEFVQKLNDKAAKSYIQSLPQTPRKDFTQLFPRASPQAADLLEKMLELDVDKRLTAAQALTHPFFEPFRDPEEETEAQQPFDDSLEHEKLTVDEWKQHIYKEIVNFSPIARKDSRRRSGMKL

## CNC(=O)Nc1ccc(-c2nc(N3CC4CCC(C3)O4)c3cnn(C4CCC5(CC4)OCCO5)c3n2)cc1
[1]
  inhibition: 4%
[2]
  inhibition: 0%
HCT-116 [3]
  IC50: 380 nM
[4]
  inhibition: 2%
MDA-MB-361 [5]
  Activity: inactive
[6]
  inhibition: 1%
MG-63
  IC50: 25 nM
[7]
  inhibition: -3%
HCT-116 [8]
  Activity: Active
mTORC2 (Homo sapiens)
  inhibition: inactive
U-87 MG
  Activity: Active
NCI-H1975
  Activity: Active
[9]
  inhibition: 2%
[10]
  inhibition: -2%
[11]
  inhibition: 12%
[12]
  inhibition: 4%
[13]
  inhibition: 9%
[14]
  inhibition: 10%
[15]
  inhibition: 3%
[16]
  inhibition: 2%
A498
  IC50: > 20000 nM
[17]
  inhibition: 0%
MDA-MB-361 [18]
  Activity: Active
[19]
  inhibition: 2%
[20]
  inhibition: 2%
[21]
  inhibition: 11%
